In PMC3669024, “Pharmacological Characterization of a 5-HT1-Type Serotonin Receptor in the Red Flour Beetle, Tribolium castaneum” (PLoS ONE, 2013):
Where a name gives a salt, the structure may show the parent alone. Read-outs that look alike come from different tables or passages of the source.

What was measured:
Type in all cases: cell-based
Trica5-HT1 [1] = biological target: T1, Trica5-HT1 (Tribolium castaneum, UniProt R9ULB8); assay: Aequorin-luminescence assay, agonist activation of Trica5-HT1 in CHO-WTA11 cells (apoaequorin + Gα16)
Procedure: (§1) General binding studies were performed in Chinese hamster ovary (CHO) WTA11 cells stably coexpressing apoaequorin and the promiscuous Gα16. This allowed us to measure the pharmacology independent of the downstream signaling. CHO-PAM28 cells stably expressing apoaequorin, but not the promiscuous Gα16, and human embryonic kidney cells (HEK) 293 cells were used to measure downstream signaling via Ca^2+ and cAMP, respectively. CHO cell lines were provided by Prof. Marc Parmentier (University of Brussels, Belgium) and Dr. Michel Detheux (Euroscreen S.A., Belgium). HEK293 cells were a gift from Prof. Arnd Baumann (Research Centre Jülich, Germany.
(§2) Cells were cultured in vitro as monolayers at 37°C, 5% CO2 and high relative humidity, and subcultivated twice a week. For transfection of CHO cells, 2.5 ml Opti-MEM®I (Invitrogen), 5 µg plasmid DNA and 12.5 µl Plus^TMreagent (Invitrogen) were mixed, stored at room temperature for 5 min and next repleted with 30 µl Lipofectamine™LTX (Invitrogen). After 30 min incubation at room temperature, this transfection mixture was added dropwise to the cells together with 5 ml medium. HEK293 cells were cotransfected with receptor construct (4 µg) and CRE-luciferase construct (2 µg), consisting of the open reading frame of the reporter gene, luciferase, downstream of a multimerized cAMP-response-element (CRE6x), [39]. All transfections were performed in T75 flasks with a confluency of about 60 percent. Cells were grown overnight, after which 15 ml of medium was added for an additional overnight incubation period.
The transfected CHO cells were detached with phosphate buffered saline (PBS) containing 0.2% EDTA and collected in DMEM/F-12 (without phenol red, with L-glutamine and 10 mM HEPES) (Gibco). The amount of viable cells was determined using the NucleoCounter NC-100+TM (Chemometic). Cells were pelleted for 4 min at 800 rpm at room temperature and resuspended in BSA-medium (DMEM/F12 without phenol red, with L-glutamine and 10 mM HEPES, supplemented with 0.1% bovine serum albumin) to a concentration of 5×10^6 cells/ml. Coelenterazine H (Invitrogen) was added to a final concentration of 5 µM, and cells were gently shaken for 4 h at room temperature in the dark. After a 10-fold dilution in BSA-medium, cells were incubated another 30 min. The pharmacological ligands were dissolved in BSA-medium. For agonists, 50 µl containing the final ligand concentration was added to appropriate wells of a 96-well plate. For antagonists, 25 µl of the antagonist solution was supplemented with 25 µl of a 5-HT solution. Receptor activity was measured as the light emission after adding 50 µl of the cell suspension. Light emission was measured for 30 s using a Mithras LB940 (Berthold Technologies). Subsequently, cells were lysed with Triton X-100 (0.1% in BSA-medium) and light emission was recorded for another 8 s. BSA-medium was used as a negative control. Light emission from each well was calculated relative to the total response (ligand+Triton X-100) using the output file of Mikrowin2000 software (Mikrotek). Further analysis was done in Graphpad Prism 5.
In order to pharmacologically characterize Trica5-HT1, we used CHO-WTA11 cells stably expressing apoaequorin and the promiscuous Gα16 subunit. […] The dose-response relationship for 5-HT and these synthetic agonists was examined at concentrations ranging from 1 pM to 1 mM (Figure 3B). […] Since the efficacy achieved by any agonist depends on the number of receptors expressed, we measured a dose-response curve for 5-HT in every experiment and normalized all agonist effects to the maximum 5-HT response, set at 100% (Figure 3B).

Trica5-HT1 [2] = biological target: T1, Trica5-HT1; assay: Aequorin-luminescence assay in CHO-PAM28 cells (no Gα16), Ca2+ signaling of Trica5-HT1; conditions: CHO-PAM28 cells transfected with the receptor
Procedure: as §1
Cells were cultured in vitro as monolayers at 37°C, 5% CO2 and high relative humidity, and subcultivated twice a week. […] HEK293 cells were cotransfected with receptor construct (4 µg) and CRE-luciferase construct (2 µg), consisting of the open reading frame of the reporter gene, luciferase, downstream of a multimerized cAMP-response-element (CRE6x), [39]. […]
The transfected CHO cells were detached with phosphate buffered saline (PBS) containing 0.2% EDTA and collected in DMEM/F-12 (without phenol red, with L-glutamine and 10 mM HEPES) (Gibco). The amount of viable cells was determined using the NucleoCounter NC-100+TM (Chemometic). […] Receptor activity was measured as the light emission after adding 50 µl of the cell suspension. […]

Trica5-HT1 [3] = biological target: T1, Trica5-HT1; assay: CRE-luciferase reporter-gene assay, NKH-477 stimulated cAMP in HEK293 cells expressing Trica5-HT1; conditions: for IC50: NKH-477 stimulated cAMP
Procedure: as §1, §2
Cotransfected HEK293 cells were detached and the amount of viable cells was determined as described for CHO cells. Cells were pelleted for 4 min at 800 rpm at room temperature and resuspended in DMEM/F12 medium (without phenol red, with L-glutamine and 10 mM HEPES) containing 200 µM 3-isobutyl-1-methylxanthine (IBMX, Sigma-Aldrich) to a concentration of 10^6 cells/ml. The pharmacological ligands were dissolved in DMEM/F12 medium without phenol red containing 200 µM IBMX. The water-soluble forskolin analog NKH-477 was added to a concentration of 20 µM to measure Trica5-ht1-mediated effects on cellular cAMP signaling. In each well of a 96-well plate, 50 µl of ligand suspension and 50 µl of cell suspension were dispensed. […] Light emission was measured for 5 s per well using a Mithras LB940 (Berthold Technologies). […] Data were analyzed as described for CHO cells.
CHO-PAM28 and HEK293 cells were used to determine the downstream signaling pathway of Trica5-HT1. […] Relative high variation in the data can be explained by assay based variation since cells were not counted when dispensed. […]

T1 sequence (R9ULB8 entry or part of it): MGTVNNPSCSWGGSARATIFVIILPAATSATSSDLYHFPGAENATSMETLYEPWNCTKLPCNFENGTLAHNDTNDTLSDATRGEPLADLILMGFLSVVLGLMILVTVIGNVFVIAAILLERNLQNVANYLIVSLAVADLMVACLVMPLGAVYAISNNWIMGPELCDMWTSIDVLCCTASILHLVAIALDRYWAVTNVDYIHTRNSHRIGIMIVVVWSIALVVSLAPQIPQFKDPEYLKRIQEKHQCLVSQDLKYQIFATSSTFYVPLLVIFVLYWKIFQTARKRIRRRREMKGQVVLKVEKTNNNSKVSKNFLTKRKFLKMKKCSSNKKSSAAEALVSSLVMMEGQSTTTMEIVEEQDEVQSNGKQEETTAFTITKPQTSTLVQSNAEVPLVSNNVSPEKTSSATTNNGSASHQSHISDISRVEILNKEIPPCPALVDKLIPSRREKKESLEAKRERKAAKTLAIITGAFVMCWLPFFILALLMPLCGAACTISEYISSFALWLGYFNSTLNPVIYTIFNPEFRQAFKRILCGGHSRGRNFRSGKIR

NCCc1c[nH]c2ccc(O)cc12 [5-HT, 5-HT hydrochloride]
concentration at which the maximal response was attained (Trica5-HT1 [1]; CHO-WTA11 cells): ≥ 10 µM | response at 100 µM agonist (Trica5-HT1 [1]; CHO-WTA11 cells, 100 µM, Figure 3A): Significant responses | EC50 (Trica5-HT1 [1]; EC50, receptor activation in CHO-WTA11 cells): 0.095 µM | EC50 (Trica5-HT1 [1]; Half-maximal activation (EC50), CHO-WTA11 cells): 0.0952 µM | EC50 (Trica5-HT1 [1]; logEC50 (mean ± SEM), receptor activation in CHO-WTA11 cells, given as negative log values): 0.0977 µM | effect on Ca2+ signaling (Trica5-HT1 [2]): No effect | concentration at which maximal attenuation of cAMP synthesis was attained (Trica5-HT1 [3]): ≥ 10 µM | Maximal attenuation of cAMP synthesis (Trica5-HT1 [3]; 5-HT ≥10 µM): ~40% | IC50 (Trica5-HT1 [3]; given as negative log value, read-out: logIC50 (mean ± SEM) (converted)): 0.0832 µM | IC50 (Trica5-HT1 [3]; read-out: Half maximal reduction of cAMP): 0.0827 µM
